Literature values, collected in US10695437B2, “Polycomplexes of poly-lysine compounds for preventing and/or combatting amyotrophic lateral sclerosis” (GEMAC, priority 2016, dated 2020).

Test system: ALS
Details: ALS patients

Nc1nc2ccc(OC(F)(F)F)cc2s1 [Riluzole]
Side effects: numerous side effects (liver toxicity)
